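Values below derive from 48-hour exposures of cells grown in 96-well plates, with endpoints linearly interpolated between the two concentrations bracketing the appropriate inhibition level. GI50 marks 50% less growth.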 Active and inactive are the calls of the source. No stated cut-off is given here; in the data, active = GI50 up to about 1.1 µM and inactive = higher.

The results in this text go back to ChEMBL document CHEMBL1201862, “PubChem BioAssay data set” (2004).

Assay in all cases: NCI-60 cell line screen, 48 h
Test [1] relates to OVCAR-4.
The test system of test [2] is HCC 2998.
Test [3] relates to SK-MEL-2.
Test [4] concerns 786-0.
Test [5] deals with HCT-116.
The subject of test [6] is UO-31.
Test [7] relates to U-251.
Test [8] deals with HL-60.
For test [9], the system named is SK-MEL-28.
For test [10], the system named is COLO 205.
Test [11] relates to SF-268.
For test [12], the system named is UACC-257.
For test [13], the system named is IGROV-1.
Test [14] concerns M14.
Test [15] deals with SF-295.

Take `N=C(N)NCCCC(NCc1c2ccccc2[n+]([O-])c2ccccc12)C(=O)O` (stereo not drawn): the GI50 in test [1] was 31.2 µM (inactive); in test [2] it was 74.5 µM (inactive); in test [3], > 100 µM (inactive); in test [4], 38.9 µM (inactive); in test [5], 25.6 µM (inactive); in test [6], 23.6 µM (inactive). Also, the GI50 is 77.4 µM (inactive) in [7]; 24.9 µM (inactive) in test [8]; 40.8 µM (inactive) in test [9]; > 100 µM (inactive) in test [10]; 33.8 µM (inactive) in test [11]; > 100 µM (inactive) in [12]. Moreover, the GI50 in test [13] was 71.9 µM (inactive); in [14], 85.5 µM (inactive); in test [15], > 100 µM (inactive).

As to `[O-][S+](Cc1cc2c(cc1Br)OCO2)c1ccccc1` (stereo not drawn), the GI50 is 67.6 µM (inactive) in test [1]; > 100 µM (inactive) in test [2]; > 100 µM (inactive) in test [3]; 39.1 µM (inactive) in test [4]; 44.9 µM (inactive) in [5]; 47.5 µM (inactive) in test [6]. The GI50 in test [7] was 30.3 µM (inactive); in [8], 21.4 µM (inactive); in test [9], 98.2 µM (inactive); in test [10] it was 34.2 µM (inactive); in test [11], 59.2 µM (inactive); in test [12], 51.4 µM (inactive). Further, the GI50 was 39.4 µM (inactive) in test [13], 48.2 µM (inactive) in test [14] and > 100 µM (inactive) in test [15].

Turning to `CCCNC(=O)c1cc2ccccc2cc1C(=O)OC`, the GI50 in test [1] is > 100 µM (inactive); in [2], > 100 µM (inactive); in test [3], > 100 µM (inactive); in test [4] it was > 100 µM (inactive); in test [5], > 100 µM (inactive); in test [6], 58.5 µM (inactive). In addition, the GI50 in [7], in test [8], in [9], in test [10], in test [11] and in [12] was > 100 µM (inactive) each time. Also, the GI50 in [13], in test [14] and in test [15] was > 100 µM (inactive) throughout.

In the case of `Cc1nc(Nc2ccc(Cl)cc2)sc1C(=O)NNc1ccc([N+](=O)[O-])cc1[N+](=O)[O-]`, the GI50 in test [1] is 18.4 µM (inactive); in test [2] it was 16.3 µM (inactive); in test [3] it was 17.9 µM (inactive); in test [4], 16.3 µM (inactive); in [5], 13.8 µM (inactive); in test [6], 14.2 µM (inactive). In addition, the GI50 is 15.6 µM (inactive) in test [7]; 16 µM (inactive) in [8]; 19.9 µM (inactive) in [9]; 19.8 µM (inactive) in test [10]; 18.7 µM (inactive) in [11]; 16.4 µM (inactive) in [12]. Also, the GI50 was 20.9 µM (inactive) in test [13], 24.7 µM (inactive) in test [14] and 18.1 µM (inactive) in [15].

On to `Cc1ncc(CCl)c2c1OC(C)(C)OC2`, for which the GI50 is 15.1 µM (inactive) in test [1]; > 100 µM (inactive) in test [2]; > 100 µM (inactive) in test [3]; 20.8 µM (inactive) in test [4]; 25.1 µM (inactive) in test [5]; > 100 µM (inactive) in [6]. Further, the GI50 in [7] was 14.4 µM (inactive); in test [8], 27 µM (inactive); in test [9], 24 µM (inactive); in test [11], 22.8 µM (inactive); in [12] it was 77.1 µM (inactive); in [13] it was > 100 µM (inactive). In addition, the GI50 in test [14] is 36.4 µM (inactive); in test [15], > 100 µM (inactive).

As for `CC1CCC2[C@@H](C)COC3O[C@]4(C)CCC1C32OO4` (stereo partly drawn), the GI50 in test [1] was > 100 µM (inactive); in test [2] it was > 100 µM (inactive); in test [3] it was > 100 µM (inactive); in test [4] it was > 100 µM (inactive); in [5], > 100 µM (inactive); in test [6], 54.1 µM (inactive). In addition, the GI50 in [7], in test [9], in [10], in test [11], in [12] and in [13] was > 100 µM (inactive) throughout. For the same molecule, the GI50 in test [14] and in test [15] was > 100 µM (inactive) throughout.

`CCN(CC)C1CC(O[C@H]2C[C@](O)(C(=O)CO)Cc3c(O)c4c(c(O)c32)C(=O)c2c(OC)cccc2C4=O)OC(C)C1O` (stereo partly drawn): the GI50 in test [1] was 0.0546 µM (active); in test [2], 0.0948 µM (active); in test [3] it was 0.067 µM (active); in test [4], 0.0588 µM (active); in [5], 0.0214 µM (active); in test [6] it was 0.0604 µM (active). In addition, the GI50 in [7] was 0.0509 µM (active); in [8] it was 0.106 µM (active); in test [9], 0.0764 µM (active); in [10], 0.0387 µM (active); in [11], 0.047 µM (active); in test [12] it was 0.0951 µM (active). Also, the GI50 in test [13] is 0.0859 µM (active); in test [14], 0.0982 µM (active); in test [15], 0.0512 µM (active).

Consider `CCN(CC)CCOC(c1ccccc1)c1ccccc1.CCOC(=O)Nc1ccc(S(=O)(=O)OC)cc1.CCOC(=O)Nc1ccc(S(=O)(=O)OC)cc1.Nc1ccc(C(=O)O)c(O)c1`, for which the GI50 in [1], in test [2], in test [3], in [4], in [5] and in test [6] was > 100 µM (inactive) each time. Also, the GI50 in test [7], in [8], in [9], in test [10], in [11] and in test [12] was > 100 µM (inactive) throughout. Besides, the GI50 in test [13], in test [14] and in [15] was > 100 µM (inactive) each time.

Turning to `CCN(CC)/C(=C\Cl)Nc1ccccn1.[O-][Cl+3]([O-])([O-])O`, the GI50 in test [1], in test [2], in test [3], in [4], in test [5] and in test [6] was > 100 µM (inactive) throughout. The GI50 in [7], in test [8], in [9], in [10], in [11] and in test [12] was > 100 µM (inactive) in each case. Moreover, the GI50 in test [13], in [14] and in test [15] was > 100 µM (inactive) each time.
